Assay results from PubChem BioAssay AID330 (DTP/NCI, 2004).
Several values for one entry are separate records, joined by “and”; a condition that tells them apart may be missing. Equal values may be shown once. Toxic doses and inconclusive results are not listed. How the source made its calls: active means survival T/C of 150% or more; inactive means T/C below 125% in these data.

Test system: P388 leukemia ip, CD2F1 mice, survival T/C
Test: NCI In Vivo Anticancer Drug Screen. Data for tumor model P388 Leukemia (intraperitoneal) in CD2F1 (CDF1) mice
Details: endpoint: median survival time, higher = longer survival
In short: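 Mice carrying the transplanted tumor received test compound or vehicle. Survival was recorded in each group, and the value is the treated-group measurement divided by that of the vehicle-treated control group.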

[1] = dose: 50.0 mg/kg/injection, schedule: Q01DX005 (ip), vehicle: Klucel (hydroxypropylcellulose) (HPC)
[2] = dose: 12.5 mg/kg/injection, schedule: Q01DX009 (ip), vehicle: saline with Tween-80
[3] = dose: 60.0 mg/kg/injection, schedule: Q01DX005 (ip), vehicle: saline
[4] = dose: 120.0 mg/kg/injection, schedule: Q01DX005 (ip), vehicle: saline
[5] = dose: 50.0 mg/kg/injection, schedule: Q01DX005 (ip), vehicle: saline with Tween-80
[6] = dose: 100.0 mg/kg/injection, schedule: Q01DX005 (ip), vehicle: saline with Tween-80
[7] = dose: 200.0 mg/kg/injection, schedule: Q01DX005 (ip), vehicle: saline with Tween-80
[8] = dose: 50.0 mg/kg/injection, schedule: Q01DX009 (ip), vehicle: saline with Tween-80

Measured: T/C

CO[C@H]1/C=C/O[C@@]2(C)Oc3c(C)c(O)c4c(O)c(c(/C=N/N5C(C)CN(Cc6ccccc6)CC5C)c(O)c4c3C2=O)NC(=O)/C(C)=C\C=C\[C@H](C)[C@H](O)[C@@H](C)[C@@H](O)[C@@H](C)[C@H](OC(C)=O)[C@@H]1C (some centres undefined)
inactive: dose: 100.0 mg/kg/injection, schedule: Q01DX009 (ip), vehicle: saline sonified 90 % of control | dose: 200.0 mg/kg/injection, schedule: Q01DX009 (ip), vehicle: saline sonified 95 % of control

O=C1c2ccccc2C(=O)N1c1cccc(CBr)c1
inactive: dose: 12.5 mg/kg/injection, schedule: Q01DX005 (ip), vehicle: Klucel (hydroxypropylcellulose) (HPC) 102 % of control | dose: 25.0 mg/kg/injection, schedule: Q01DX005 (ip), vehicle: Klucel (hydroxypropylcellulose) (HPC) 114 % of control | [1] 113 % of control

O=c1c2ncccc2cc2n1CCc1c-2[nH]c2ccccc12
inactive: dose: 6.25 mg/kg/injection, schedule: Q01DX009 (ip), vehicle: saline with Tween-80 88 % of control | [2] 86 % of control

O=S(c1ccccc1)c1c(Cl)c(Cl)nc(Cl)c1Cl (centres undefined)
inactive: dose: 22.0 mg/kg/injection, schedule: Q01DX009 (ip), vehicle: saline with Tween-80 100 % of control and 113 % of control | dose: 33.0 mg/kg/injection, schedule: Q01DX009 (ip), vehicle: saline with Tween-80 109 % of control

Cc1cc(N2CCCCC2)cc(=O)o1
inactive: dose: 50.0 mg/kg/injection, schedule: Q01DX009 (ip), vehicle: Klucel (hydroxypropylcellulose) (HPC) 104 % of control | dose: 100.0 mg/kg/injection, schedule: Q01DX009 (ip), vehicle: Klucel (hydroxypropylcellulose) (HPC) 102 % of control

Clc1ccc2c(c1)C1CN(C2)Cc2ccc(Cl)cc21
inactive: dose: 100.0 mg/kg/injection, schedule: Q01DX001 (ip), vehicle: saline with Tween-80 101 % of control | dose: 200.0 mg/kg/injection, schedule: Q01DX001 (ip), vehicle: saline with Tween-80 87 % of control | dose: 400.0 mg/kg/injection, schedule: Q01DX001 (ip), vehicle: saline with Tween-80 93 % of control

COc1ccc(C(C)c2cc3c(cc2OC)OCO3)cc1OC (centres undefined)
inactive: dose: 50.0 mg/kg/injection, schedule: Q01DX005 (ip), vehicle: distilled water + Tween-80 99 % of control | dose: 100.0 mg/kg/injection, schedule: Q01DX005 (ip), vehicle: distilled water + Tween-80 98 % of control | dose: 200.0 mg/kg/injection, schedule: Q01DX005 (ip), vehicle: distilled water + Tween-80 100 % of control

C1=C[N-]c2c3c(ccc2=C1)=CC=C[N-]3.C1=C[N-]c2c3c(ccc2=C1)=CC=C[N-]3.O=[N+]([O-])O.[Cu+]
inactive: dose: 1.56 mg/kg/injection, schedule: Q04DX002 (ip), vehicle: saline 100 % of control | dose: 3.12 mg/kg/injection, schedule: Q04DX002 (ip), vehicle: saline 99 % of control and 98 % of control | dose: 6.25 mg/kg/injection, schedule: Q04DX002 (ip), vehicle: saline 99 % of control and 110 % of control and 98 % of control | dose: 12.5 mg/kg/injection, schedule: Q04DX002 (ip), vehicle: saline 120 % of control and 97 % of control | dose: 25.0 mg/kg/injection, schedule: Q04DX002 (ip), vehicle: saline 111 % of control and 97 % of control

CCOc1c(-c2ccccc2)c(=O)n2c3ccccc3n(CC)c2c1C#N
inactive: dose: 7.5 mg/kg/injection, schedule: Q01DX005 (ip), vehicle: saline with Tween-80 86 % of control | dose: 15.0 mg/kg/injection, schedule: Q01DX005 (ip), vehicle: saline with Tween-80 87 % of control | dose: 30.0 mg/kg/injection, schedule: Q01DX005 (ip), vehicle: saline with Tween-80 93 % of control | dose: 120.0 mg/kg/injection, schedule: Q01DX005 (ip), vehicle: saline with Tween-80 88 % of control | dose: 240.0 mg/kg/injection, schedule: Q01DX005 (ip), vehicle: saline with Tween-80 98 % of control and 100 % of control

CCCN1C(=O)C2C3CCC(O3)C2C1=O (centres undefined)
inactive: [3] 100 % of control | [4] 109 % of control | dose: 240.0 mg/kg/injection, schedule: Q01DX005 (ip), vehicle: saline 98 % of control

C1CNC(N2CCN(C3=NCCN3)CC2)=N1
inactive: [1] 104 % of control | dose: 100.0 mg/kg/injection, schedule: Q01DX005 (ip), vehicle: Klucel (hydroxypropylcellulose) (HPC) 100 % of control

CSCC(NP1(=O)SC(NN=C(C)C)=NC1(C)C)C(=O)O (centres undefined)
inactive: [3] 106 % of control | [4] 107 % of control

O=[n+]1c2c(n([O-])c3ccccc31)CCCCC2
inactive: dose: 100.0 mg/kg/injection, schedule: Q04DX003 (ip), vehicle: saline with Tween-80 99 % of control | dose: 200.0 mg/kg/injection, schedule: Q04DX003 (ip), vehicle: saline with Tween-80 101 % of control | dose: 400.0 mg/kg/injection, schedule: Q04DX003 (ip), vehicle: saline with Tween-80 92 % of control

CC1=Cc2cc(C)cc(C)c2C1=O
inactive: [5] 90 % of control | [6] 93 % of control | [7] 96 % of control

CCC[C@@H]1C[C@@H](OC(=S)SC)C[C@H]2CCC(=O)N12
inactive: dose: 50.0 mg/kg/injection, schedule: Q01DX005 (ip), vehicle: Klucel + Tween-80 102 % of control | dose: 100.0 mg/kg/injection, schedule: Q01DX005 (ip), vehicle: Klucel + Tween-80 93 % of control | dose: 200.0 mg/kg/injection, schedule: Q01DX005 (ip), vehicle: Klucel + Tween-80 107 % of control

O=C1NC(c2ccccc2)C(c2ccccc2)(c2ccccc2)O1 (centres undefined)
inactive: [8] 93 % of control | dose: 100.0 mg/kg/injection, schedule: Q01DX009 (ip), vehicle: saline with Tween-80 86 % of control

O=C1c2cccc3cc([N+](=O)[O-])cc(c23)C(=O)N1CCCN(CCO)CCO
inactive: dose: 25.0 mg/kg/injection, schedule: Q01DX005 (ip), vehicle: saline with Tween-80 105 % of control | [5] 107 % of control | [6] 108 % of control and 121 % of control

CC(C)(Nc1ccccc1)C(=O)OC(C)(C)C(=O)Nc1ccccc1
inactive: [5] 90 % of control | [6] 91 % of control | [7] 91 % of control

CCOC(=O)/C=C(\C)Sc1cc(O)c2ccccc2c1O
inactive: [2] 119 % of control | [8] 108 % of control

CC(=O)N1CCCC2=C1CCCCCC2
inactive: dose: 12.5 mg/kg/injection, schedule: Q04DX003 (ip), vehicle: saline 99 % of control | dose: 25.0 mg/kg/injection, schedule: Q04DX003 (ip), vehicle: saline 104 % of control | dose: 50.0 mg/kg/injection, schedule: Q04DX003 (ip), vehicle: saline 104 % of control | dose: 100.0 mg/kg/injection, schedule: Q04DX003 (ip), vehicle: saline 117 % of control | dose: 200.0 mg/kg/injection, schedule: Q04DX003 (ip), vehicle: saline 101 % of control | dose: 400.0 mg/kg/injection, schedule: Q04DX003 (ip), vehicle: saline 100 % of control

COc1ccc2cc3cnccc3cc2c1OC
inactive: dose: 12.5 mg/kg/injection, schedule: Q01DX009 (ip), vehicle: water 99 % of control | dose: 25.0 mg/kg/injection, schedule: Q01DX009 (ip), vehicle: water 97 % of control | dose: 50.0 mg/kg/injection, schedule: Q01DX009 (ip), vehicle: water 94 % of control | dose: 100.0 mg/kg/injection, schedule: Q01DX009 (ip), vehicle: water 102 % of control | dose: 200.0 mg/kg/injection, schedule: Q01DX009 (ip), vehicle: water 96 % of control

CN(C)c1ccc(-c2c3ccccc3nc3ccccc23)cc1
inactive: [2] 90 % of control | dose: 25.0 mg/kg/injection, schedule: Q01DX009 (ip), vehicle: saline with Tween-80 90 % of control | [8] 100 % of control

O=S(=O)(O)SCCNCCc1ccccn1
inactive: dose: 12.5 mg/kg/injection, schedule: Q01DX005 (ip), vehicle: water 104 % of control | dose: 25.0 mg/kg/injection, schedule: Q01DX005 (ip), vehicle: water 109 % of control | dose: 50.0 mg/kg/injection, schedule: Q01DX005 (ip), vehicle: water 109 % of control | dose: 100.0 mg/kg/injection, schedule: Q01DX005 (ip), vehicle: water 107 % of control

O=S(=O)(O)c1ccc2cccc(N=Nc3c(O)ccc4ccccc34)c2c1
inactive: dose: 12.5 mg/kg/injection, schedule: Q01DX009 (ip), vehicle: saline 104 % of control | dose: 25.0 mg/kg/injection, schedule: Q01DX009 (ip), vehicle: saline 101 % of control | dose: 50.0 mg/kg/injection, schedule: Q01DX009 (ip), vehicle: saline 93 % of control
